The values that follow come from patent US12012390B2, “Flavone compounds for the treatment and prophylaxis of hepatitis B virus disease” (priority 2018, dated 2024).

The structures appear in SMILES notation.

Assay [1] concerns HBeAg level (surrogate marker for cccDNA) in HepDES19 cells. Kind of assay: Engineered HepDES19 primary screen assay (HBeAg as surrogate marker for cccDNA). Type of assay: cell-based, HBV. Conditions: Hepatitis B virus, HepDES19, 120 h, read-out: IC50 (HBeAg) in HepDES19 primary screen assay, HepDES19 cells, 5 days incubation with compound, HBeAg by ELISA. In outline:
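HepDES19 cells were induced by Tet withdrawal for 8 days, then exposed to half-log compound dilutions (1% DMSO) for 5 days at 37° C. HBeAg, a cccDNA surrogate, was measured by ELISA; viability by CCK-8. IC50 from 4-parameter logistic fit.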

For another assay, the system named is cccDNA in HepDES19 cells. Briefly: cccDNA Southern Blot assay. Type of assay: cell-based, HBV. Conditions: 5 days' compound treatment, FIG. 1. The procedure:
HepDES19 cells were seeded at 4×10^6 cells per T150 in the culture medium (Dulbecco's Modified Eagle Medium: Nutrient Mixture F-12 [DMEM-F12, Gibco Cat. 11320-82], 10% Fetal Bovine Serum [FBS, Clontech Cat. 631101], 0.1 mM Non-Essential Amino Acids Solution [NEAA, Gibco Cat. 11140-050], 50 μg/mL Penicillin-Streptomycin [PS, Invitrogen Cat. 15140-163], 500 μg/mL Geneticin [G418, Invitrogen Cat. 10131-027]) in the absence of Tet for 8 days. These cells were seeded at the density of 1×10^6 cells per well in 6-well plate. At 24 hrs after seeding, serial dilutions of compounds made with DMSO (Sigma, Cat. D2650) were further diluted with the same culture medium as described above before they were added to the cells to reach desired final compound concentrations and 1% DMSO concentration. After 5 days' compound treatment, the cells growing in one well from 6-well plate were re-suspended with 500 μL re-suspension buffer (50 mM tris[hydroxymethyl]amino methane pH 7.5), 10 mM ethylenediaminetetraacetic acid (EDTA), 50 μg/mL RNase A [Qiagen, Cat. 158922]. 500 μL of 1.2% sodium dodecyl sulfate (SDS) was then added into the re-suspended cells to lyse the cells. After 15 minutes' incubation, 700 μL precipitation buffer (3M cesium chloride, 1M potassium acetate, 0.67M acetic acid) was added and the lysate was incubated at 4° C. for 2 h. […]

On to `O=C(O)C1CC(OCCOc2ccc(-c3cc(=O)c4cccc(Cl)c4o3)cc2)C1` (centres unmarked) [Example 1, 3-[2-[4-(8-chloro-4-oxo-chromen-2-yl)phenoxy]ethoxy]cyclobutanecarboxylic acid], for which the IC50 in assay [1] came to 140 nM. Moreover, the “cccDNA level in cccDNA Southern Blot assay” value in the assay on cccDNA in HepDES19 cells was “dose-dependently reduced cccDNA level”.
